# Measured values from patent US12209096B2, “Compounds and compositions for inducing chondrogenesis” (NOVARTIS AG, priority 2017, dated 2025).
# pEC50, pIC50: −log10 of the molar value.
# Legend:
# NHACs = experiment: calcium flux assay; type: cell-based, human; conditions: Homo sapiens; for Emax: read-out: (A) % Efficacy
# How it was run: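 Normal human articular chondrocytes plated at 2000 cells/well and loaded 24 h later with Calcium 5 dye in HBSS/HEPES with 5 mM probenecid for 1 h at room temperature. Test compound added at indicated dose; fluorescence (ex 470–495/em 515–575 nm) recorded on FLIPR before and after addition.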
# C3H10T1/2 cell line = experiment: alkaline phosphatase assay in C3H10T1/2; type: cell-based; conditions: Mus musculus, C3H 10T1/2, 144 h, alkaline phosphatase assay in C3H10T1/2, 6 days; for Emax: read-out: (D) % Efficacy; for pIC50: read-out: (D) IC50
# Description: To initiate differentiation in C3H10T1/2, Clone 8 (ATCC cat #CCL-226), 4,000 cells were plated/well in 384 Perkin Elmer CellCarrier Ultra plate in DMEM/High glucose (HyClone cat #SH30022.01) containing 10% FBS and 1× Antibiotic/Antimycotic (HyClone cat #SV30079.01). After 24 hours the test compound was then added to each well at the indicated dose. The cultures were grown at 37° C. for 6 days.
# To detect the presence of hypertrophic cells, C3H10T1/2 were fixed with 4% paraformaldehyde and Hoeschst dye for 20 minutes, rinsed in PBS, then stained with Fast Blue RR Salt with Naphthol AS-MX Phosphate Alkaline Solution.
# The ALP staining was imaged by fluoresecent microscopy, using the 561 wavelength, and/or quantified by high content imagining with the ImageXpress Micro Confocal (Molecular Devices, Sunnyvale, CA). Data analyses were performed with the customized multiwavelength cell-scoring application looking at the number of ALP positive cells per well.
SMILES,pEC50 (NHACs),Emax (NHACs) [%],Emax (C3H10T1/2 cell line) [%],pIC50 (C3H10T1/2 cell line)
"Cc1cc([C@H]2[C@H](C(=O)Nc3ccc(Cl)c(Cl)c3)[C@H]3O[C@@H]2C[C@@H]3O)ccn1 [Example 77d, (1R,2S,3R,4R,6S)-N-(3,4-dichlorophenyl)-6-hydroxy-3-(2-methylpyridin-4-yl)-7-oxabicyclo[2.2.1]heptane-2-carboxamide]",4.48,92,54,< 4.70
"Cc1cc([C@H]2[C@H]3O[C@H](C[C@H]3O)[C@@H]2C(=O)Nc2ccc(Cl)c(Cl)c2)ccn1 [Example 180, (1R,2R,3S,4R,5R)—N-(3,4-dichlorophenyl)-5-hydroxy-3-(2-methylpyridin-4-yl)-7-oxabicyclo[2.2.1]heptane-2-carboxamide]",4.52,113,69,4.96
"Cc1cc([C@@H]2[C@@H]3O[C@@H](C[C@@H]3O)[C@H]2C(=O)Nc2ccc(Cl)c(Cl)c2)ccn1 [Example 181, (1S,2S,3R,4S,5S)—N-(3,4-dichlorophenyl)-5-hydroxy-3-(2-methylpyridin-4-yl)-7-oxabicyclo[2.2.1]heptane-2-carboxamide]",4.57,243,28,< 4.70
"COc1cc([C@H]2[C@H]3O[C@H](C[C@@H]3O)[C@@H]2C(=O)Nc2ccc(Cl)c(Cl)c2)ccn1 (single isomer, unassigned) [Example 139a]",4.60,275,54,5.74
"Cc1cc([C@H]2[C@H]3O[C@H](C[C@H]3NCCO)[C@@H]2C(=O)Nc2ccc(Cl)c(Cl)c2)ccn1 [Example 168, (1R,2R,3S,4R,5R)—N-(3,4-dichlorophenyl)-5-((2-hydroxyethyl)amino)-3-(2-methylpyridin-4-yl)-7-oxabicyclo[2.2.1]heptane-2-carboxamide]",6.49,114,0,< 4.70
"Cc1ccc([C@H]2[C@H]3O[C@H](C[C@@H]3O)[C@@H]2C(=O)Nc2ccc(Cl)c(Cl)c2)cn1 [Example 138, (1R,2R,3S,4R,5S)—N-(3,4-dichlorophenyl)-5-hydroxy-3-(6-methylpyridin-3-yl)-7-oxabicyclo[2.2.1]heptane-2-carboxamide]",< 4.30,0,24,< 4.70
"Cc1ccc([C@H]2[C@H]3O[C@H]([C@@H]4C[C@@H]43)[C@@H]2C(=O)Nc2cnc(Cl)c(Cl)c2)cn1 [Example 74, (1S,2S,4R,5R,6R,7S)—N-(5,6-dichloropyridin-3-yl)-7-(6-methylpyridin-3-yl)-8-oxatricyclo[3.2.1.0^2,4]octane-6-carboxamide]",5.11,90,83,< 4.70
"COc1cc([C@H]2[C@H]3O[C@H](C[C@@H]3F)[C@@H]2C(=O)Nc2ccc(Cl)c(Cl)c2)ccn1 [Example 103, (1R,2R,3S,4R,5S)—N-(3,4-dichlorophenyl)-5-fluoro-3-(2-methoxypyridin-4-yl)-7-oxabicyclo[2.2.1]heptane-2-carboxamide]",4.62,153,79,5.00
"O=C(Nc1ccc(Cl)c(Cl)c1)[C@@H]1[C@@H](c2cnc(C(F)(F)F)nc2)[C@H]2O[C@@H]1C[C@@H]2O [Example 154, (1R,2R,3S,4R,5S)—N-(3,4-dichlorophenyl)-5-hydroxy-3-(2-(trifluoromethyl)pyrimidin-5-yl)-7-oxabicyclo[2.2.1]heptane-2-carboxamide]",4.59,236,75,5.40
"Cc1cc([C@H]2[C@H]3O[C@H]([C@@H]4C[C@@H]43)[C@@H]2C(=O)Nc2ccc(Cl)c(Cl)c2)ccn1 [Example 117, (1S,2S,4R,5R,6R,7S)—N-(3,4-dichlorophenyl)-7-(2-methylpyridin-4-yl)-8-oxatricyclo[3.2.1.0^2,4]octane-6-carboxamide]",5.52,177,59,5.15
"Cc1cc([C@H]2[C@H]3O[C@H](C[C@@H]3O)[C@@H]2C(=O)NC2CCN(S(C)(=O)=O)CC2)ccn1 [Example 79, (1R,2R,3S,4R,5S)-5-hydroxy-3-(2-methylpyridin-4-yl)-N-(1-(methylsulfonyl)piperidin-4-yl)-7-oxabicyclo[2.2.1]heptane-2-carboxamide]",< 4.30,113,34,< 4.70
"COc1cc([C@H]2[C@H]3O[C@H](C[C@H]3F)[C@@H]2C(=O)Nc2ccc(Cl)c(Cl)c2)ccn1 [Example 165, (1R,2R,3S,4R,5R)—N-(3,4-dichlorophenyl)-5-fluoro-3-(2-methoxypyridin-4-yl)-7-oxabicyclo[2.2.1]heptane-2-carboxamide]",5.22,110,59,< 4.70
"O=C(Nc1cnc(Cl)c(Cl)c1)[C@H]1[C@H](c2ccnc(F)c2)[C@@H]2O[C@H]1C[C@H]2O (single isomer, unassigned) [Example 90b]",< 4.30,44,45,< 4.70
"O=C(Nc1ccc(Cl)c(Cl)c1)[C@H]1[C@@H](c2ccnc(C(F)(F)F)c2)[C@H]2O[C@@H]1C[C@@H]2O (single isomer, unassigned) [Example 54a]",5.46,45,35,< 4.70
"Nc1cc([C@H]2[C@H]3O[C@H](C[C@@H]3O)[C@@H]2C(=O)Nc2ccc(Cl)c(Cl)c2)ccn1 [Example 149, (1R,2R,3S,4R,5S)-3-(2-aminopyridin-4-yl)-N-(3,4-dichlorophenyl)-5-hydroxy-7-oxabicyclo[2.2.1]heptane-2-carboxamide]",4.59,112,58,5.08
"O=C(Nc1ccc(Cl)c(Cl)c1)[C@@H]1[C@H]2O[C@H]([C@@H]3C[C@@H]32)[C@H]1c1cncnc1 (single isomer, unassigned) [Example 126b]",5.25,103,42,< 4.70
"Cc1cc([C@@H]2[C@@H](C(=O)Nc3ccc(Cl)c(Cl)c3)[C@@H]3O[C@H]2C[C@H]3O)ccn1 (single isomer, unassigned) [Example 77b]",4.70,157,47,< 4.70
"COc1ccc(NC(=O)[C@H]2[C@@H]3O[C@@H]([C@H]4C[C@H]43)[C@@H]2c2ccc(C)nc2)cn1 [Example 123, (1S,2S,4R,5R,6R,7S)—N-(6-methoxypyridin-3-yl)-7-(6-methylpyridin-3-yl)-8-oxatricyclo[3.2.1.0^2,4]octane-6-carboxamide]",< 4.30,0,48,< 4.70
"Cc1cc([C@H]2[C@H]3O[C@H](C[C@H]3N(C)C)[C@@H]2C(=O)Nc2ccc(Cl)c(Cl)c2)ccn1 [Example 166, (1R,2R,3S,4R,5R)—N-(3,4-dichlorophenyl)-5-(dimethylamino)-3-(2-methylpyridin-4-yl)-7-oxabicyclo[2.2.1]heptane-2-carboxamide]",4.62,68,0,< 4.70
"COc1cc([C@@H]2[C@@H]3O[C@@H](C[C@H]3O)[C@H]2C(=O)Nc2ccc(Cl)c(Cl)c2)ccn1 (single isomer, unassigned) [Example 139b]",4.59,141,82,5.11
